According to patent US5576311A, “Cyclodextrins as suspending agents for pharmaceutical suspensions” (Pharmos Corporation, priority 1994, dated 1996):
Values after ≈ are worked out from the molar mass of the structure shown. Like-named read-outs stand apart in the source and are kept apart here.

Legend:
glucocorticoid receptors = details: cited from earlier work
[1] = 25° C.; cited from earlier work
[2] = Method D: solubilization of LE by cyclodextrins, HPLC before and after centrifugation; assay type: physicochemical
Method: To evaluate solubilization of drugs such as LE by cyclodextrins, LE is continuously mixed with cyclodextrins in various concentrations in water for one week at room temperature. Samples of the resulting suspensions and the soluble fractions of LE are analyzed by high pressure liquid chromatography ("HPLC") before and after centrifugation at 5000 G, respectively (hereinafter referred to as "Method D"). The concentrations of LE are calculated from the area under the curve of the LE peak using known techniques.

[3] = Stability of aqueous suspensions of LE with buffering systems or ionic tonicity agents; assay type: physicochemical; details: accepted buffering systems or ionic tonicity agents
[4] = HPLC measurement of concentration of LE in cyclodextrin suspensions after storage; assay type: physicochemical
[5] = in vivo; cited from earlier work
[6] = in vivo; cited from earlier work; remark: listed apart in the source

CCOC(=O)OC1(C(=O)O)CCC2C3CCC4=CC(=O)C=CC4(C)C3C(O)CC21C (stereo not drawn) [PJ-91]
binding to glucocorticoid receptors (glucocorticoid receptors): does not bind to glucocorticoid receptors

OC[C@H]1O[C@@H]2O[C@H]3[C@H](O)[C@@H](O)[C@@H](O[C@H]4[C@H](O)[C@@H](O)[C@@H](O[C@H]5[C@H](O)[C@@H](O)[C@@H](O[C@H]6[C@H](O)[C@@H](O)[C@@H](O[C@H]7[C@H](O)[C@@H](O)[C@@H](O[C@H]8[C@H](O)[C@@H](O)[C@@H](O[C@H]1[C@H](O)[C@H]2O)O[C@@H]8CO)O[C@@H]7CO)O[C@@H]6CO)O[C@@H]5CO)O[C@@H]4CO)O[C@@H]3CO [β-Cyclodextrin, β-cyclodextrin]
aqueous solubility [1]: about 1.8 % w/v

CCOC(=O)O[C@]1(C(=O)OCCl)CC[C@H]2[C@@H]3CCC4=CC(=O)C=C[C@]4(C)[C@H]3[C@@H](O)C[C@@]21C [LE, loteprednol etabonate]
solubility at 168 h ([2]; water with 0.5% hpcd, 0.5% HPCD, water, one week, room temperature, read-out: LE Solubilized): 7 µg/mL (≈ 15 µM)
solubility at 168 h ([2]; water with 1.0% bcd, 1.0% BCD, water, one week, room temperature, read-out: LE Solubilized): 10 µg/mL (≈ 21.4 µM)
solubility at 168 h ([2]; water with 1.0% hecd, 1.0% HECD, water, one week, room temperature, read-out: LE Solubilized): 10 µg/mL (≈ 21.4 µM)
solubility at 168 h ([2]; water with 1.0% hpcd, 1.0% HPCD, water, one week, room temperature, read-out: LE Solubilized): 5 µg/mL (≈ 10.7 µM)
solubility at 168 h ([2]; water with cyclodextrin, all cyclodextrins of Table 3, read-out: LE solubilized by cyclodextrins): ≤ 10 µg/mL
obtaining stable aqueous suspensions [3]: cannot be obtained
[LE] measurement (% of label) ([4]; 5 mg/ml label, BCD 1%, 23 C, 4.0 mos, 172800 min): 106.78 % of label
[LE] measurement (% of label) ([4]; 5 mg/ml label, HECD 1%, 23 C, 4.0 mos, 172800 min): 104.26 % of label
[LE] measurement (% of label) ([4]; 5 mg/ml label, HPCD 0.5%, 23 C, 5.0 mos, 216000 min): 101.12 % of label
[LE] measurement (% of label) ([4]; 5 mg/ml label, HPCD 1%, 23 C, 0.5 mos, 21600 min): 94.3 % of label
[LE] measurement (% of label) ([4]; 5 mg/ml label, HPCD 1%, 23 C, 5.0 mos, 216000 min): 115.45 % of label
[LE] measurement (% of label) ([4]; 5 mg/ml label, HPCD 1%, 37 C, 2.0 mos, 86400 min): 104.04 % of label
[LE] measurement (% of label) ([4]; 5 mg/ml label, HPCD 1%, 45 C, 2.0 mos, 86400 min): 96.84 % of label
[LE] measurement (% of label) ([4]; 10 mg/ml label, BCD 1%, 23 C, 4.0 mos, 172800 min): 105.7 % of label
[LE] measurement (% of label) ([4]; 10 mg/ml label, HECD 1%, 23 C, 4.0 mos, 172800 min): 135.88 % of label
[LE] measurement (% of label) ([4]; 10 mg/ml label, HPCD 0.5%, 23 C, 5.0 mos, 216000 min): 109.09 % of label
[LE] measurement (% of label) ([4]; 10 mg/ml label, HPCD 1%, 23 C, 0.5 mos, 21600 min): 88.18 % of label
[LE] measurement (% of label) ([4]; 10 mg/ml label, HPCD 1%, 23 C, 5.0 mos, 216000 min): 110.23 % of label
concentration of LE in the suspension (in words) ([4]; Table 4 storage): not significantly altered
efficacy relative to prednisolone acetate [5]: efficacy similar to its parent compound, namely, prednisolone acetate
ocular anti-inflammatory activity [5]: has ocular anti-inflammatory activity
risk of steroid induced cataracts and elevation of intra-ocular pressure [6]: reducing the risk of steroid induced cataracts and elevation of intra-ocular pressure
